Counter-ions that a name gives are not always drawn.
Assays:
Type in all cases: in vivo, Human
[1] = tested on: children and young adults with Dravet syndrome; assay: Study 1: Behavior Rating Inventory of Executive Function (BRIEF); settings: for BRIEF Global Executive Composite, change from baseline, mean: raw scores, negative = improvement
Description: In the BRIEF test, the parent/caregiver and/or the patient (e.g., child or adolescent self-reporting) responds to a series of statements or questions in the form of questionnaires, where an answer of “N”=Never a problem, “S”=Sometimes a problem, and “O”=Often a problem are used to indicate that the behavior being described or assessed has occurred in the past 6 months.
Each questionnaire of the BRIEF parent- and teacher-rating form contains 86 items in eight non-overlapping clinical scales and two validity scales. Based on theoretical and empirical analyses (reviewed in chapter 5 of Gioia, Ibid.), the clinical scales combine to form two indexes: a) Behavioral Regulation (three scales) and b) Metacognition (five scales), as well as a Global Executive Composite (GEC), which is a summary score that takes into account all eight clinical scales of the BRIEF and represents the child's overall executive function. There are also two validity scales to measure Negativity and Inconsistency of responses. Scores on the Negativity scale measures the extent to which the respondent answered selected items in an unusually negative manner whereas scores on the Inconsistency scale indicate the extent to which the respondent answered similar items in an inconsistent manner.
The BRIEF (BRIEF-A or BRIEF-P) were administered at the time of patient randomization (on visit 3, which was one day before (study day “−1”) treatment began (study day 1)); the BRIEF was administered again during visit 8 (study day 43), and at the end of the study (visit 12, study day 99) to assess cognitive function.
The incidence of treatment-emergent adverse events (TEAEs) was monitored continuously during the study. TEAEs were graded by the investigator as mild, moderate, or severe, and related or not related to study medication. Vital signs, height, weight, and clinical laboratory evaluations were performed at each study visit. The Behavior Rating Inventory of Executive Function (BRIEF) was administered at baseline and periodically during the treatment period to assess for any effects of treatment on cognitive function. Doppler echocardiography (ECHOs) and 12-lead electrocardiography (ECGs) were performed during the screening/baseline period, after 6 weeks of treatment, and after 14 weeks of treatment at the end of the maintenance period. The ECGs and ECHOs were evaluated by two independent cardiologists who were blind to treatment randomization. In the event of disagreement, a third cardiologist arbitrated the decision.

[2] = tested on: children and young adults with Dravet syndrome; assay: Study 1: quality of life (PedsQL, QOLCE); settings: increase indicates improvement
Experimental: In Study 1, subjects were assessed using Clinical Global Impression (CGI), allowing the parent/caregiver and principal investigator to assess improvement, as well as the Quality of Life in Childhood Epilepsy (QOLCE) Scale and the Pediatric Quality of Life Inventory (PedsQL) to measure changes in the quality of life of the subject. Comparisons between treatment groups were made using Wilcoxon rank sum tests.
In 2003, Varni and colleagues published a study intended to determine the feasibility, reliability, and validity of the 23-item PEDSQL 4.0 (Pediatric Quality of Life Inventory) Generic Core Scales as a measure of pediatric population health for children and adolescents. The instrument was given to over 10,000 families with children age 2-16 in the state of California. From Varni, et al., parent reported changes in each of the scales and summary scores that could be considered clinically meaningful include a change of >1 SEM or Standard Error of Measurement as a cut point.

[3] = tested on: subjects with Dravet syndrome; assay: Study 1503: open-label long-term extension, CGI-I at baseline and final visit
Experimental: Study 1503 was an open-label, long-term safety study of ZX008 in subjects with Dravet syndrome who successfully completed 14 weeks of treatment in 1501, 1502, or 1504 Cohorts 1 and 2. […] CGI-S(baseline scores) were determined at entry into 1503 (i.e., after completing a blinded 16 week trial) and then again at each patient's final visit. FIGS. 7 and 8, and Tables 3 and 4 present numbers of patients having each of the 7 ratings and statistical calculations of improvements.
The CGI scale measures the change in the subject's clinical status from a specific point in time, i.e., the Baseline Period (and also referred to as the CGI-S, an initial ranking of severity). The CGI rating scale permits a global evaluation of the subject's improvement over time.

## CCNC(C)Cc1cccc(C(F)(F)F)c1 (centres unmarked) [ZX008, fenfluramine hydrochloride]
[1]; 0.2 mg/kg/day, P<0.05
  BRIEF BRI, improvement compared to baseline as compared to placebo: significant improvement
[1]; 0.2 mg/kg/day
  BRIEF Global Executive Composite, change from baseline, mean: −4.4 ± 22.3
[1]; 0.8 mg/kg/day, P<0.05
  BRIEF BRI, improvement compared to baseline as compared to placebo: statistically significant improvement
  BRIEF GEC, improvement compared to baseline as compared to placebo: statistically significant improvement
[1]; 0.8 mg/kg/day
  BRIEF Global Executive Composite, change from baseline, mean: −11.0 ± 29.1
[1]; 0.2 and 0.8 mg/kg/day, hydrochloride
  BRIEF-P, difference from placebo: No changes
[2]; 0.2 mg/kg/day
  Pediatric Quality of Life Inventory (Peds QL) Total Score, change from baseline, mean ± SD: 6.8 ± 11.3
[2]; 0.8 mg/kg/day
  Pediatric Quality of Life Inventory (Peds QL) Total Score, change from baseline, mean ± SD: 5.9 ± 15.1
[3]; OLE Baseline
  CGI-I investigator, 1 = Very much improved, % of subjects: (15.8) %
  CGI-I investigator, 1 = Very much improved, N of subjects: 35
  CGI-I investigator, 2 = Much improved, % of subjects: (24.4) %
  CGI-I investigator, 2 = Much improved, N of subjects: 54
  CGI-I investigator, 3 = Minimally improved, % of subjects: (20.8) %
  CGI-I investigator, 3 = Minimally improved, N of subjects: 46
  CGI-I investigator, 4 = No change, % of subjects: (32.6) %
  CGI-I investigator, 4 = No change, N of subjects: 72
  CGI-I investigator, 5 = Minimally worse, % of subjects: (5.0) %
  CGI-I investigator, 5 = Minimally worse, N of subjects: 11
  CGI-I investigator, 6 = Much worse, % of subjects: (1.4) %
  CGI-I investigator, 6 = Much worse, N of subjects: 3
  CGI-I investigator, 7 = Very much worse, % of subjects: (0.0) %
  CGI-I investigator, 7 = Very much worse, N of subjects: 0
  CGI-I investigator, Improved (1, 2, 3), %: (61.1) %
  CGI-I investigator, Much/very much improved (1, 2), %: (40.3) %
  CGI-I parent/caregiver, 1 = Very much improved, % of subjects: (16.4) %
  CGI-I parent/caregiver, 1 = Very much improved, number of subjects: 37
  CGI-I parent/caregiver, 2 = Much improved, % of subjects: (21.8) %
  CGI-I parent/caregiver, 2 = Much improved, number of subjects: 49
  CGI-I parent/caregiver, 3 = Minimally improved, % of subjects: (19.1) %
  CGI-I parent/caregiver, 3 = Minimally improved, number of subjects: 43
  CGI-I parent/caregiver, 4 = No change, % of subjects: (26.7) %
  CGI-I parent/caregiver, 4 = No change, number of subjects: 60
  CGI-I parent/caregiver, 5 = Minimally worse, % of subjects: (10.7) %
  CGI-I parent/caregiver, 5 = Minimally worse, number of subjects: 24
  CGI-I parent/caregiver, 6 = Much worse, % of subjects: (4.0) %
  CGI-I parent/caregiver, 6 = Much worse, number of subjects: 9
  CGI-I parent/caregiver, 7 = Very much worse, % of subjects: (1.3) %
  CGI-I parent/caregiver, 7 = Very much worse, number of subjects: 3
  CGI-I parent/caregiver, Improved (1, 2, 3), %: (57.3) %
  CGI-I parent/caregiver, Much/very much improved (1, 2), %: (38.2) %
[3]; OLE Baseline, N 221, 7-point scale
  CGI-I investigator rating, Median: 3.0
[3]; OLE Baseline, N 221, scale 1 very much improved to 7 very much worse
  CGI-I investigator rating, Mean: 2.9
[3]; OLE Baseline, N 225, 7-point scale
  CGI-I parent/caregiver rating, Median: 3.0
[3]; OLE Baseline, N 225, scale 1 very much improved to 7 very much worse
  CGI-I parent/caregiver rating, Mean: 3.1
[3]; OLE Final Visit
  CGI-I investigator, 1 = Very much improved, % of subjects: (27.6) %
  CGI-I investigator, 1 = Very much improved, N of subjects: 70
  CGI-I investigator, 2 = Much improved, % of subjects: (36.6) %
  CGI-I investigator, 2 = Much improved, N of subjects: 93
  CGI-I investigator, 3 = Minimally improved, % of subjects: (21.3) %
  CGI-I investigator, 3 = Minimally improved, N of subjects: 54
  CGI-I investigator, 4 = No change, % of subjects: (7.9) %
  CGI-I investigator, 4 = No change, N of subjects: 20
  CGI-I investigator, 5 = Minimally worse, % of subjects: (5.5) %
  CGI-I investigator, 5 = Minimally worse, N of subjects: 14
  CGI-I investigator, 6 = Much worse, % of subjects: (1.2) %
  CGI-I investigator, 6 = Much worse, N of subjects: 3
  CGI-I investigator, 7 = Very much worse, % of subjects: (0.0) %
  CGI-I investigator, 7 = Very much worse, N of subjects: 0
  CGI-I investigator, Improved (1, 2, 3), %: (85.4) %
  CGI-I investigator, Much/very much improved (1, 2), %: (64.2) %
  CGI-I parent/caregiver, 1 = Very much improved, % of subjects: (27.0) %
  CGI-I parent/caregiver, 1 = Very much improved, number of subjects: 67
  CGI-I parent/caregiver, 2 = Much improved, % of subjects: (35.5) %
  CGI-I parent/caregiver, 2 = Much improved, number of subjects: 88
  CGI-I parent/caregiver, 3 = Minimally improved, % of subjects: (19.8) %
  CGI-I parent/caregiver, 3 = Minimally improved, number of subjects: 49
  CGI-I parent/caregiver, 4 = No change, % of subjects: (7.7) %
  CGI-I parent/caregiver, 4 = No change, number of subjects: 19
  CGI-I parent/caregiver, 5 = Minimally worse, % of subjects: (5.2) %
  CGI-I parent/caregiver, 5 = Minimally worse, number of subjects: 13
  CGI-I parent/caregiver, 6 = Much worse, % of subjects: (4.0) %
  CGI-I parent/caregiver, 6 = Much worse, number of subjects: 10
  CGI-I parent/caregiver, 7 = Very much worse, % of subjects: (0.8) %
  CGI-I parent/caregiver, 7 = Very much worse, number of subjects: 2
  CGI-I parent/caregiver, Improved (1, 2, 3), %: (82.3) %
  CGI-I parent/caregiver, Much/very much improved (1, 2), %: (62.5) %
[3]; OLE Final Visit, n 248, 7-point scale
  CGI-I parent/caregiver rating, Median: 2.0
[3]; OLE Final Visit, n 248, scale 1 very much improved to 7 very much worse
  CGI-I parent/caregiver rating, Mean: 2.4
[3]; OLE Final Visit, n 254, 7-point scale
  CGI-I investigator rating, Median: 2.0
[3]; OLE Final Visit, n 254, scale 1 very much improved to 7 very much worse
  CGI-I investigator rating, Mean: 2.3
